Test results published in patent US6979686B1, “Substituted pyrazoles as p38 kinase inhibitors” (Pharmacia Corporation, priority 2001, dated 2005).
Read-outs that look alike come from different tables or passages of the source. Each block holds one molecule with its values, some of them ahead of it.

Legend:
human p38 kinase alpha = target: T1, human p38 kinase alpha (Homo sapiens, UniProt Q16539); experiment: p38 kinase in vitro assay, phosphorylation of biotinylated PHAS-I with 32P-ATP; type: biochemical; conditions: for IC50: read-out: P38 alpha kinase IC50; for P38 alpha kinase % inhib @ conc. (uM) / inhibition at 1 µM: @ 1.0 uM; for inhibition at 1 µM: read-out: P38 alpha kinase % inhib @ conc.
T1 construct: GST (N, cleaved yes); made in house; host or cells: E. coli DH10B
T1 sequence (Q16539 whole entry): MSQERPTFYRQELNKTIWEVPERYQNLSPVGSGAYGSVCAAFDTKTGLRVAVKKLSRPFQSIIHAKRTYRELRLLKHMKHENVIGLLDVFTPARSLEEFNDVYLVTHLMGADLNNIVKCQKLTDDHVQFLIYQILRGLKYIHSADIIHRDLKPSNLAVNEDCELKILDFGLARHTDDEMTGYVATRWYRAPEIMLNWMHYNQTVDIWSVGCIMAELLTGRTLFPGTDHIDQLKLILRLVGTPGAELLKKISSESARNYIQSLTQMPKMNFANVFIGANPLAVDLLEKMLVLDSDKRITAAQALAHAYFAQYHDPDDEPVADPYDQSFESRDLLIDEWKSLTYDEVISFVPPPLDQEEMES

[1] = system: TNF-α, U937 human histiocytic lymphoma cell line; experiment: LPS stimulation of TNF production by U937 cells; type: cell-based; conditions: @ 1.0 uM; TNF production in human U937 cells stimulated with LPS
Experimental: Maintenance and Differentiation of the U937 Human Histiocytic Lymphoma Cell Line:
Fifty million cells in 100 ml media were induced to terminal monocytic differentiation by 24 hour incubation with 20 ng/ml phorbol 12-myristate 13-acetate (Sigma). The cells were washed by centrifugation (200×g for 5 min) and resuspended in 100 ml fresh medium. After 24-48 hours, the cells were harvested, centrifuged, and resuspended in culture medium at 2 million cells/ml.
LPS Stimulation of TNF Production by U937 Cells:
Compounds were prepared as 10 mM stock solutions in DMSO and diluted in culture medium to yield a final DMSO concentration of 0.1% in the cell assay. LPS (E coli, 100 ng/ml final concentration) was then added at a volume of 0.02 ml. After 4 hour incubation at 37° C., the amount of TNF-α released in the culture medium was quantitated by ELISA. Inhibitory potency is expressed as IC50 (μM).
In vitro whole cell assay for measuring the ability of the compounds to inhibit TNF production in human U937 cells stimulated with LPS are shown in the column identified as: • “U937 Cell IC50, uM or % inhib @ conc., (uM)”

[2] = in vitro P38-alpha kinase inhibition

SMILES: C[C@@H](NS(=O)(=O)c1ccc2ccccc2c1)c1[nH]nc(-c2ccc(F)cc2)c1-c1ccncc1 [Example B-0475]
U937 Cell % inhib @ conc. (uM) [1]: 74.0% @

SMILES: CC(NC(=O)c1cccc(Cl)c1)c1[nH]nc(-c2ccc(F)cc2)c1-c1ccncc1 (centres unmarked) [Example B-0702]
IC50 (human p38 kinase alpha; [2]): 36 nM

SMILES: Cc1cccc(C)c1NC(=O)NC(C)c1[nH]nc(-c2ccc(F)cc2)c1-c1ccncc1 (centres unmarked) [Example B-0588]
IC50 (human p38 kinase alpha; [2]): 12800 nM

SMILES: CC(NC(=O)c1ccc(Cl)cc1Cl)c1[nH]nc(-c2ccc(F)cc2)c1-c1ccncc1 (centres unmarked) [Example B-0693]
U937 Cell % inhib @ conc. (uM) [1]: 28.0% @

SMILES: CC(NC(=O)c1c(Cl)cccc1Cl)c1[nH]nc(-c2ccc(F)cc2)c1-c1ccncc1 (centres unmarked) [Example B-0696]
IC50 (human p38 kinase alpha; [2]): 85 nM

SMILES: CCCNC(=O)NC(Cc1ccccc1)c1[nH]nc(-c2ccc(F)cc2)c1-c1ccncc1 (centres unmarked) [Example B-0780]
IC50 (human p38 kinase alpha; [2]): 1100 nM

SMILES: O=C(Nc1ccccc1)NC(Cc1ccccc1)c1[nH]nc(-c2ccc(F)cc2)c1-c1ccncc1 (centres unmarked) [Example B-0782]
IC50 (human p38 kinase alpha; [2]): 22000 nM

SMILES: CC(NC(=O)c1ccncc1)c1[nH]nc(-c2ccc(F)cc2)c1-c1ccncc1 (centres unmarked) [Example B-0555]
IC50 (human p38 kinase alpha; [2]): 1870 nM

SMILES: O=S(=O)(NCc1[nH]nc(-c2ccc(F)cc2)c1-c1ccncc1)c1ccc(Br)cc1 [Example B-0224]
IC50 (human p38 kinase alpha; in vitro P38-alpha kinase): < 100 nM

SMILES: O=C(NCc1[nH]nc(-c2ccc(F)cc2)c1-c1ccncc1)C(c1ccccc1)c1ccccc1 [Example B-0032]
inhibition at 1 µM (human p38 kinase alpha): 94%

SMILES: CCCOC(=O)NC(Cc1ccccc1)c1[nH]nc(-c2ccc(F)cc2)c1-c1ccncc1 (centres unmarked) [Example B-0747]
IC50 (human p38 kinase alpha; [2]): 1100 nM

SMILES: COc1ccc(OC)c(CC(=O)NCc2[nH]nc(-c3ccc(F)cc3)c2-c2ccncc2)c1 [Example B-0013]
inhibition at 1 µM (human p38 kinase alpha): 70%

SMILES: O=C(O)c1ccccc1S(=O)(=O)NCc1[nH]nc(-c2ccc(F)cc2)c1-c1ccncc1 [Example B-0228]
IC50 (human p38 kinase alpha; in vitro P38-alpha kinase): 150 nM

SMILES: CC(NS(=O)(=O)c1ccc(C(F)(F)F)cc1)c1[nH]nc(-c2ccc(F)cc2)c1-c1ccncc1 (centres unmarked) [Example B-0636]
IC50 (human p38 kinase alpha; [2]): < 100 nM

SMILES: CC(NC(=O)c1cnc2ccccc2n1)c1[nH]nc(-c2ccc(F)cc2)c1-c1ccncc1 (centres unmarked) [Example B-0561]
IC50 (human p38 kinase alpha; [2]): 2070 nM

The remaining lines, values ahead:

IC50 (human p38 kinase alpha; in vitro P38-alpha kinase): 160 nM
SMILES: O=S(=O)(NCCCc1[nH]nc(-c2ccc(F)cc2)c1-c1ccncc1)c1ccc(F)cc1Cl [Example B-1254]

P38 alpha kinase % inhib @ conc. (human p38 kinase alpha; @ 10.0 uM): 49.0% @
SMILES: Cc1c(-c2ccncc2)c(-c2ccc(F)cc2)nn1CC(=O)NC1CCCCC1 [Example B-2347]

P38 alpha kinase IC50, uM or % inhib @ conc. (uM): % inhib (human p38 kinase alpha; @ 10.0 uM): 90.0% @
SMILES: Cc1c(-c2ccncc2)c(-c2ccc(F)cc2)nn1CC(=O)Nc1ccccc1Cl [Example B-2422]

IC50 (human p38 kinase alpha; [2]): 33000 nM
SMILES: COc1ccc(NC(=O)NC(Cc2ccccc2)c2[nH]nc(-c3ccc(F)cc3)c2-c2ccncc2)c(OC)c1 (centres unmarked) [Example B-0789]

IC50 (human p38 kinase alpha; in vitro P38-alpha kinase): < 100 nM
SMILES: O=C(c1cccc(F)c1F)N1CCC(c2[nH]nc(-c3ccc(F)cc3)c2-c2ccncc2)CC1 [Example B-1411]

IC50 (human p38 kinase alpha; in vitro P38-alpha kinase): < 100 nM
SMILES: CC1(C)[C@@H]2CC[C@@]1(S(=O)(=O)NCCCc1[nH]nc(-c3ccc(F)cc3)c1-c1ccncc1)C(=O)C2 [Example B-1277]

P38 alpha kinase % inhib @ conc. (uM) (human p38 kinase alpha): 78.0% @
SMILES: CC(=O)NCCc1[nH]nc(-c2ccc(F)cc2)c1-c1ccncc1 [Example B-0987]

IC50 (human p38 kinase alpha; [2]): < 100 nM
SMILES: Cc1cccc(S(=O)(=O)NCCc2[nH]nc(-c3ccc(F)cc3)c2-c2ccncc2)c1 [Example B-1089]

P38 alpha kinase IC50, uM or % inhib @ conc. (uM): % inhib (human p38 kinase alpha; @ 10.0 uM): 87.0% @
SMILES: Cc1c(-c2ccncc2)c(-c2ccc(F)cc2)nn1CC(=O)Nc1ccc(-n2ccc(C(F)(F)F)n2)cc1 [Example B-2455]

P38 alpha kinase % inhib @ conc. (uM) (human p38 kinase alpha): 62.0% @
SMILES: CC(=O)OCC(=O)NCCc1[nH]nc(-c2ccc(F)cc2)c1-c1ccncc1 [Example B-0981]

P38 alpha kinase IC50, uM or % inhib @ conc. (uM): % inhib (human p38 kinase alpha; @ 10.0 uM): 63.0% @
SMILES: COCCN(CC1CCCCC1)C(=O)Cn1nc(-c2ccc(F)cc2)c(-c2ccncc2)c1C [Example B-2392]

IC50 (human p38 kinase alpha; [2]): 580 nM
SMILES: O=S(=O)(NCCc1[nH]nc(-c2ccc(F)cc2)c1-c1ccncc1)c1cc(S(=O)(=O)c2ccccc2)cs1 [Example B-1112]

IC50 (human p38 kinase alpha; in vitro P38-alpha kinase): 40 nM
SMILES: CC(=O)Nc1nc(C)c(S(=O)(=O)NCCCc2[nH]nc(-c3ccc(F)cc3)c2-c2ccncc2)s1 [Example B-1235]

IC50 (human p38 kinase alpha; [2]): 1070 nM
SMILES: O=C(NCCc1[nH]nc(-c2ccc(F)cc2)c1-c1ccncc1)c1cccc(F)c1 [Example B-1145]
